This note sets out measurements from PMC7402176, “Highlighting the Biological Potential of the Brown Seaweed Fucus spiralis for Skin Applications” (Antioxidants, 2020).

Structures are written as SMILES.

The target of the experiment is T1, collagenase.
T1 construct: gene colG; commercial kit enzyme (EnzChek Gelatinase/Collagenase Assay Kit); native bacterial preparation, usually a mixture of collagenases
The experiment can be described thus: fluorescence assay, fluorescein-conjugate gelatin cleavage. The format is biochemical. As to conditions: positive control; EnzChek kit. The text has this: fluorescence assay, fluorescein-conjugate gelatin cleavage on collagenase

As for `O=C(O[C@@H]1Cc2c(O)cc(O)cc2O[C@@H]1c1cc(O)c(O)c(O)c1)c1cc(O)c(O)c(O)c1` [(−)-Epigallocatechin gallate], the Collagenase is 4.8 (4.1–5.5) µg/mL.
